One assay addresses ER (Homo sapiens (Human), UniProt P03372). Put plainly: In-cell western blot analysis of ER for "B" compounds. Format: cell-based. The following applies: 16 hours, read-out: ICW DC50. The essentials:
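ER levels given as a percentage of untreated/DMSO-treated wells (100%). Detection used primary antibodies for 2 h at room temperature followed by 680 and 800 nm fluorescent secondaries at 1:1000 for 1 h, read by LI-COR imaging.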

Assay [1] is described as follows: Cell growth assay (WST-8) for "B" compounds. Format: cell-based. The following applies: T47D, read-out: Cell growth Inhibition in T47D cell line IC50. In short, it runs like this: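 Four-day compound exposure of cells plated at 1500/well the day before. Read-out is WST-8 (10%, 2.5 h, 37 °C) absorbance at 450 nm, normalized to vehicle control over three independent repeats.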
(Tetrazolium dyes change colour on reduction, which living cells bring about.)

The structures appear in SMILES notation. Where two headings read alike, the source gives them in different places.

As usually defined, the IC50 is the concentration needed to halve the response being measured.

ER, sequence (P03372 whole entry): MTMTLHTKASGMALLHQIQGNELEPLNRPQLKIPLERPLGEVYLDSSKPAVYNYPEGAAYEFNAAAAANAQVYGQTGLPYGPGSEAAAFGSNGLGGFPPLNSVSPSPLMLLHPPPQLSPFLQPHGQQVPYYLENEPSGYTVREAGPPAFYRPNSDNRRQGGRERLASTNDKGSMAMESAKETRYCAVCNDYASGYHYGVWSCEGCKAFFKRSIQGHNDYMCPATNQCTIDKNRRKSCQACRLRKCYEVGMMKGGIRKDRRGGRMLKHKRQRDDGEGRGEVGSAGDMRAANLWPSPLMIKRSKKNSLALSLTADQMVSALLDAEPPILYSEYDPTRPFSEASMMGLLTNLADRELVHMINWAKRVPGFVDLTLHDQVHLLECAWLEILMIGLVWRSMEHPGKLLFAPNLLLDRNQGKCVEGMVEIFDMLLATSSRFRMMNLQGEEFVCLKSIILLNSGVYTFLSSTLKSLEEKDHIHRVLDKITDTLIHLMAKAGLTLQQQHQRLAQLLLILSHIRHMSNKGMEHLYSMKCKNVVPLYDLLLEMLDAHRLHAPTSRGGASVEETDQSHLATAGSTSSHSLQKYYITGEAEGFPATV

For `O=C1CCC(N2Cc3cc4c(cc3C2=O)OC[C@@H]2CN(C3CN(CC5CCN(c6ccc([C@@H]7c8ccc(O)cc8CC[C@@H]7c7ccccc7)cc6)CC5)C3)CCN42)C(=O)N1` (stereo partly drawn) [Compound B164, 3-((S)-3-(1-((1-(4-((1R,2S)-6-hydroxy-2-phenyl-1,2,3,4-tetrahydronaphthalen-1-yl)phenyl)piperidin-4-yl)methyl)azetidin-3-yl)-8-oxo-1,2,3,4,4a,5,8,10-octahydro-9H-pyrazino[1′,2′:4,5][1,4]oxazino[2,3-f]isoindol-9-yl)piperidine-2,6-dione], on ER, the DC50 is less than 10 nM. Also, in assay [1] (T47D cell line), the IC50 lay within 1 to 10 nM.
Consider `O=C1CCC(N2Cc3c(ccc4c3OCCC43CCN(CC4CCN(c5ccc([C@@H]6c7ccc(O)cc7CC[C@@H]6c6ccccc6)cc5)CC4)CC3)C2=O)C(=O)N1` (stereo partly drawn) [Compound B165, 3-(1-((1-(4-((1R,2S)-6-hydroxy-2-phenyl-1,2,3,4-tetrahydronaphthalen-1-yl)phenyl)piperidin-4-yl)methyl)-7′-oxo-2′,3′,7′,9′-tetrahydro-8′H-spiro[piperidine-4,4′-pyrano[2,3-e]isoindol]-8′-yl)piperidine-2,6-dione], for which the DC50 at ER was greater than 100 nM. The IC50 in assay [1] is less than 1 nM.
For the compound `O=C1CCC(N2Cc3cc4c(cc3C2=O)CN(CC(=O)N2CCC3(CC2)CCN(c2ccc([C@@H]5c6ccc(O)cc6CC[C@@H]5c5ccccc5)cc2)CC3)C4)C(=O)N1` (stereo partly drawn) [Compound B166, 3-(6-(2-(9-(4-((1R,2S)-6-hydroxy-2-phenyl-1,2,3,4-tetrahydronaphthalen-1-yl)phenyl)-3,9-diazaspiro[5.5]undecan-3-yl)-2-oxoethyl)-1-oxo-3,5,6,7-tetrahydropyrrolo[3,4-f]isoindol-2(1H)-yl)piperidine-2,6-dione], on ER, the DC50 is less than 10 nM. Besides, the IC50 in assay [1] (T47D cell line) was less than 1 nM.
With `O=C1CCC(N2Cc3cc4c(cc3C2=O)OC[C@@H]2CN(C3CN(C5CCN(c6ccc([C@@H]7c8ccc(O)cc8CC[C@@H]7c7ccccc7)cc6)CC5)C3)CCN42)C(=O)N1` (stereo partly drawn) [Compound B167, 3-((S)-3-(1-(1-(4-((1R,2S)-6-hydroxy-2-phenyl-1,2,3,4-tetrahydronaphthalen-1-yl)phenyl)piperidin-4-yl)azetidin-3-yl)-8-oxo-1,2,3,4,4a,5,8,10-octahydro-9H-pyrazino[1′,2′:4,5][1,4]oxazino[2,3-f]isoindol-9-yl)piperidine-2,6-dione], on ER, the DC50 is less than 10 nM. In addition, in assay [1] (T47D cell line), the IC50 was less than 1 nM.
For `O=C1CCC(N2Cc3c(ccc4c3OCC43CCN(C(=O)CN4CC5(CC(Nc6ccc([C@@H]7c8ccc(O)cc8CC[C@@H]7c7ccccc7)cc6)C5)C4)CC3)C2=O)C(=O)N1` (stereo partly drawn) [Compound B168, 3-(1′-(2-(6-((4-((1R,2S)-6-hydroxy-2-phenyl-1,2,3,4-tetrahydronaphthalen-1-yl)phenyl)amino)-2-azaspiro[3.3]heptan-2-yl)acetyl)-6-oxo-6,8-dihydro-2H,7H-spiro[furo[2,3-e]isoindole-3,4′-piperidin]-7-yl)piperidine-2,6-dione], in that order: less than 10 nM and less than 1 nM.
Consider `O=C1CCC(N2Cc3c(ccc4c3OCC43CCN(CC(=O)N4CC5(CC(Nc6ccc([C@@H]7c8ccc(O)cc8CC[C@@H]7c7ccccc7)cc6)C5)C4)CC3)C2=O)C(=O)N1` (stereo partly drawn) [Compound B170, 3-(1′-(2-(6-((4-((1R,2S)-6-hydroxy-2-phenyl-1,2,3,4-tetrahydronaphthalen-1-yl)phenyl)amino)-2-azaspiro[3.3]heptan-2-yl)-2-oxoethyl)-6-oxo-6,8-dihydro-2H,7H-spiro[furo[2,3-e]isoindole-3,4′-piperidin]-7-yl)piperidine-2,6-dione], for which the DC50 on ER is less than 10 nM. Further, the IC50 in assay [1] is less than 1 nM.
`O=C1CCC(N2Cc3c(ccc4c3OCC43CCN(CC(=O)N4CC5(CCN(c6ccc([C@@H]7c8ccc(O)cc8CC[C@@H]7c7ccccc7)cc6)CC5)C4)CC3)C2=O)C(=O)N1` (stereo partly drawn) [Compound B171, 3-(1′-(2-(7-(4-((1R,2S)-6-hydroxy-2-phenyl-1,2,3,4-tetrahydronaphthalen-1-yl)phenyl)-2,7-diazaspiro[3.5]nonan-2-yl)-2-oxoethyl)-6-oxo-6,8-dihydro-2H,7H-spiro[furo[2,3-e]isoindole-3,4′-piperidin]-7-yl)piperidine-2,6-dione]: the DC50 on ER was less than 10 nM. For the same compound, the IC50 in assay [1] was less than 1 nM.
As for `O=C1CCC(N2Cc3cc4c(cc3C2=O)OC[C@@H]2CN(CC3CC5(CCN(c6ccc([C@@H]7c8ccc(O)cc8CC[C@@H]7c7ccccc7)cc6)CC5)CO3)CCN42)C(=O)N1` (stereo partly drawn) [Compound B173, 3-((4aS)-3-((8-(4-((1R,2S)-6-hydroxy-2-phenyl-1,2,3,4-tetrahydronaphthalen-1-yl)phenyl)-2-oxa-8-azaspiro[4.5]decan-3-yl)methyl)-8-oxo-1,2,3,4,4a,5,8,10-octahydro-9H-pyrazino[1′,2′: 4,5][1,4]oxazino[2,3-f]isoindol-9-yl)piperidine-2,6-dione], the DC50 on ER was greater than 100 nM. For the same compound, the IC50 in assay [1] (T47D cell line) was less than 1 nM.
For `O=C1CCC(N2Cc3c(ccc4c3OCC43CCN(CC4CC5(CCN(c6ccc([C@@H]7c8ccc(O)cc8CC[C@@H]7c7ccccc7)cc6)CC5)CO4)CC3)C2=O)C(=O)N1` (stereo partly drawn) [Compound B175, 3-(1′-((8-(4-((1R,2S)-6-hydroxy-2-phenyl-1,2,3,4-tetrahydronaphthalen-1-yl)phenyl)-2-oxa-8-azaspiro[4.5]decan-3-yl)methyl)-6-oxo-6,8-dihydro-2H,7H-spiro[furo[2,3-e]isoindole-3,4′-piperidin]-7-yl)piperidine-2,6-dione], at ER, the DC50 is 10 to 100 nM. Further, the IC50 in assay [1] is less than 1 nM.
In the case of `O=C1CCC(N2Cc3cc4c(cc3C2=O)OC[C@@H]2CN(CC3CCC5(CCN(c6ccc([C@@H]7c8ccc(O)cc8CC[C@@H]7c7ccccc7)cc6)CC5)O3)CCN42)C(=O)N1` (stereo partly drawn) [Compound B177, 3-((4aS)-3-((8-(4-((1R,2S)-6-hydroxy-2-phenyl-1,2,3,4-tetrahydronaphthalen-1-yl)phenyl)-1-oxa-8-azaspiro[4.5]decan-2-yl)methyl)-8-oxo-1,2,3,4,4a,5,8,10-octahydro-9H-pyrazino[1′,2′: 4,5][1,4]oxazino[2,3-f]isoindol-9-yl)piperidine-2,6-dione], on ER, the DC50 was greater than 100 nM. In addition, the IC50 in assay [1] (T47D cell line) lay in the range of 1 to 10 nM.
Consider `O=C1CCC(N2Cc3c(ccc4c3OCC43CCN(CC4CCC5(CCN(c6ccc([C@@H]7c8ccc(O)cc8CC[C@@H]7c7ccccc7)cc6)CC5)O4)CC3)C2=O)C(=O)N1` (stereo partly drawn) [Compound B178, 3-(1′-((8-(4-((1R,2S)-6-hydroxy-2-phenyl-1,2,3,4-tetrahydronaphthalen-1-yl)phenyl)-1-oxa-8-azaspiro[4.5]decan-2-yl)methyl)-6-oxo-6,8-dihydro-2H,7H-spiro[furo[2,3-e]isoindole-3,4′-piperidin]-7-yl)piperidine-2,6-dione], for which the DC50 on ER was greater than 100 nM. In addition, in assay [1], the IC50 was less than 1 nM.
As to `COc1c2c(cc3c1CN(C1CCC(=O)NC1=O)C3=O)CN(CC(=O)N1CCC3(CC1)CCN(c1ccc([C@@H]4c5ccc(O)cc5CC[C@@H]4c4ccccc4)cc1)CC3)C2` (stereo partly drawn) [Compound B203, 3-(6-(2-(9-(4-((1R,2S)-6-hydroxy-2-phenyl-1,2,3,4-tetrahydronaphthalen-1-yl)phenyl)-3,9-diazaspiro[5.5]undecan-3-yl)-2-oxoethyl)-4-methoxy-1-oxo-3,5,6,7-tetrahydropyrrolo[3,4-f]isoindol-2(1H)-yl)piperidine-2,6-dione], the DC50 at ER was less than 10 nM. Moreover, the IC50 in assay [1] (T47D cell line) is less than 1 nM.
